Data on 25 compounds can be found in paper PMC4076021 (ACS chemical biology, 2014).

The test system of assay [1] is immature primary cortical neurons. As to the kind of experiment: Oxidative toxicity. The settings on record: 0.5 µM, 5 mM HCA, MTT. The format is cell-based, rat.
The test system of a further assay is H3K4Me2 in H460 cells. As to the kind of experiment: Western blot of H3K4Me2 in H460 cells. The settings on record: H460, 48 h, compared with LNCaP. It is filed as cell-based. For orientation: Immunoblotting shows a protein as a band on a membrane.
The target of assay [2] is T1, GST-LSD1 (Homo sapiens, UniProt O60341). Nature of the assay: MassSQUIRM LSD1 inhibition assay. It is filed as biochemical. The settings on record: 50 µM inhibitor, 30 min, 215 nM GST-LSD1.
In a further assay the test system is H3K4Me2 in LNCaP cells. As to the kind of experiment: Western blot of histone H3 methylation in LNCaP cells. The format is cell-based.
The target of assay [3] is T1, GST-LSD1. As to the kind of experiment: biochemical. It is filed as biochemical. The settings on record: for kinact/KI: read-out: kinact/Ki(inact).
In assay [4] the test system is H460 cells.
Assay [5] has as its system H460 cells. As to the kind of experiment: [3H] thymidine incorporation proliferation assay in H460 cells. The format is cell-based. The settings on record: H460, 48 h, 80 µM.
Assay [6] addresses T1, GST-LSD1. As to conditions: cited from earlier work.
Setting [7] is: mechanism-based inactivation, extrapolated to zero substrate.

Read-outs that look alike come from different tables or passages of the source. A value given as a limit tells only on which side of the number the result lay.

As usually defined, the IC50 is the midpoint of a concentration-inhibition curve. Read a low IC50 as greater potency. Broadly, the kinact is the rate constant of inactivation at saturating inhibitor.

Consider `Cl.Cl.NNCCc1ccc(NC(=O)CCCc2ccccc2)cc1` [12d], for which, in assay [1], the “survival of neurons after HCA treatment (in words)” value was “significantly enhanced survival”. Besides, the “effect on H3K4Me2 levels (in words)” value in the assay on H3K4Me2 in H460 cells is “comparable dose-response effects”. Moreover, the “LSD1 inhibition in MassSQUIRM assay (in words)” value on GST-LSD1 [2] is recorded as “very substantial LSD1 inhibition”. Further, in the assay with H3K4Me2 in LNCaP cells (10 µM, normalized to vehicle, 3 biological replicates), the “H3K4Me2 band density time course (in words)” value is “Statistically significant increases were observed at 6, 24, 48, 72, and 96 h but not at 30 min and 12 h”. For the same compound, in the assay on H3K4Me2 in LNCaP cells (0.4–10 µM, 48 h), the “changes in H3K4Me1, H3K4Me3, unmethylated H3K4, H3K9Me2, H3K9Ac, H3K36Me3 (in words)” value is reported as “no significant reproducible changes” and the “effect on LSD1 protein levels (in words)” value is given as “no discernible effect”. The “H3K4Me2 band density (in words)” value with H3K4Me2 in LNCaP cells (48 h, 3 µM and 10 µM, three biological replicates) was “Statistically significant increases”.

With `CNNCCCc1ccc(OC)cc1` [9f], the IC50 on GST-LSD1 [3] was above 100 µM.

`CC(/C=C/C(=O)NO)=C\[C@@H](C)C(=O)c1ccc(N(C)C)cc1` [TSA]: in the assay with H460 cells [4], the “combination effect on inhibition of H460 cell proliferation (in words)” value (“combination effect on inhibition” for short) is “moderate antagonism” and the “combination index (CI)” value is above 1.

On to `NNCCc1ccc(NC(=O)CCCCc2ccccc2)cc1` [12e], for which, at GST-LSD1 [3], the kinact is 0.00367 s⁻¹ and the kinact/KI was 14300 M⁻¹ s⁻¹. The KI (inactivation) on GST-LSD1 [3] (setting [7]) was 0.26 ± 0.11 µM.

As to `NNCCc1ccc(NC(=O)CCCc2ccc(Cl)cc2)cc1` [12f], on GST-LSD1 [3], the kinact was 0.00283 s⁻¹ and the kinact/KI is 18300 M⁻¹ s⁻¹.

For the compound `CNNCCc1ccccc1.Cl.Cl` [9a], the “LSD1 inhibitory action (in words)” value on GST-LSD1 [3] is given as “negated LSD1 inhibitory action”.

On to `CN(C(=O)CCCc1ccccc1)c1ccc(CCNN)cc1.O=C(O)C(=O)O` [12l], for which, in the assay on H3K4Me2 in LNCaP cells (48 h, concentrations up to 10 µM), the “H3K4Me2 changes (in words)” value is “did not show changes in H3K4Me2”. In addition, on GST-LSD1 [3], the “fold weaker LSD1 inhibitor than bizine” value is on record as ~ 30 fold, the kinact is 0.004 s⁻¹ and the kinact/KI was 2000 M⁻¹ s⁻¹. The KI (inactivation) on GST-LSD1 [3] (setting [7]) is 2 ± 0.73 µM.

`NNCCc1ccc(NC(=O)CCc2c[nH]c3ccccc23)cc1` [15a]: on GST-LSD1 [3], the kinact is 0.0035 s⁻¹ and the kinact/KI is 16700 M⁻¹ s⁻¹.

On to `NNCCCOc1ccccc1` [10b], for which, at GST-LSD1 [3], the KI (inactivation) worked out at 12 ± 2.1 µM, the kinact is 0.00367 s⁻¹ and the kinact/KI is 300 M⁻¹ s⁻¹.

As to `NNCCc1ccc(NC(=O)CCc2ccccc2)cc1` [12c], at GST-LSD1 [3], the kinact was 0.004 s⁻¹ and the kinact/KI was 15300 M⁻¹ s⁻¹.

As for `NNCCCN1CCOCC1` [compound 11], on GST-LSD1 [3], the IC50 is above 100 µM and the “LSD1 inhibitory action (in words)” value is “not compatible with LSD1 inhibition”.

For the compound `NNCCc1ccc(NC(=O)/C=C/c2ccccc2)cc1` [compound 13], at GST-LSD1 [3], the kinact was 0.00283 s⁻¹ and the kinact/KI was 28300 M⁻¹ s⁻¹.

As to `NNCCc1ccccc1` [phenelzine, reference compound], the “reduction in 3H-thymidine incorporation” value with H460 cells [5] is given as below 50%. Also, the “LSD1 inhibition in MassSQUIRM assay (in words)” value on GST-LSD1 [2] was “negligible impact on LSD1 inhibition”. Besides, the “concentration needed to extinguish LSD1 activity under MassSQUIRM conditions” value on GST-LSD1 [6] is reported as “greater than 10 mM”. Further, the “H3K4Me2 changes (in words)” value in the assay on H3K4Me2 in LNCaP cells (48 h, concentrations up to 40 µM) is on record as “did not induce H3K4Me2 changes”.

For the compound `NNCCc1ccc(NC(=O)c2ccccc2)cc1` [12a], at GST-LSD1 [3], the KI (inactivation) stood at 0.28 ± 0.11 µM, the kinact is 0.00317 s⁻¹ and the kinact/KI is 11700 M⁻¹ s⁻¹.

For `CN(C)NCCc1ccccc1` [9b], on GST-LSD1 [3], the IC50 was above 100 µM.

As for `NNCCc1ccc(N(Cc2ccccc2)C(=O)CCCc2ccccc2)cc1` [12m], on GST-LSD1 [3], the kinact is 0.00367 s⁻¹ and the kinact/KI was 2330 M⁻¹ s⁻¹. In addition, the KI (inactivation) at GST-LSD1 [3] (setting [7]) is 1.6 ± 0.49 µM.

Consider `NNCCOc1ccccc1` [10a], for which, on GST-LSD1 [3], the KI (inactivation) was 44 ± 9.7 µM, the kinact was 0.0025 s⁻¹ and the kinact/KI is 56.7 M⁻¹ s⁻¹.

`NNCCc1ccc(NC(=O)CCCc2ccc([N+](=O)[O-])cc2)cc1` [12i]: at GST-LSD1 [3], the kinact was 0.0035 s⁻¹ and the kinact/KI is 12300 M⁻¹ s⁻¹.

`Cc1[nH]c2ccccc2c1CCNCc1ccc(/C=C/C(=O)NO)cc1` [LBH-589]: the “combination effect on inhibition” value in the assay with H460 cells [4] is “additive to synergistic effects”.

Turning to `COc1ccc(CCCNN)cc1.Cl.Cl` [9e], at GST-LSD1 [3], the KI (inactivation) was 8 ± 3.5 µM, the “LSD1 inhibitory action (in words)” value is listed as “made little difference”, the kinact was 0.0025 s⁻¹ and the kinact/KI was 317 M⁻¹ s⁻¹.

As for `Nc1ccccc1NC(=O)c1ccc(CNc2nccc(-c3cccnc3)n2)cc1` [MGCD0103], in the assay on H460 cells [4], the “combination effect on inhibition” value is on record as “moderate antagonism” and the “combination index (CI)” value is given as above 1.

For the compound `Nc1ccccc1NC(=O)c1ccc(CNC(=O)OCc2cccnc2)cc1` [MS-275], the “combination effect on inhibition” value in the assay on H460 cells [4] is recorded as “additive to synergistic effects”.

For `Nc1ncn([C@@H]2O[C@H](CO)[C@@H](O)[C@H]2O)c(=O)n1` [azacytidine], the “combination effect on inhibition” value in the assay on H460 cells [4] is “moderate antagonism”.

Take `NNCCc1ccc(NC(=O)Cc2ccccc2)cc1` [12b]: on GST-LSD1 [3], the KI (inactivation) turned out to be 0.37 ± 0.033 µM, the kinact is 0.00333 s⁻¹ and the kinact/KI was 9000 M⁻¹ s⁻¹.

As for `NNCCCCc1ccccc1` [9h], at GST-LSD1 [3], the KI (inactivation) was 22 ± 3 µM, the kinact is 0.002 s⁻¹ and the kinact/KI is 91.7 M⁻¹ s⁻¹.
